Test results published in publication PMC3742014 (Journal of medicinal chemistry, 2010).

Columns and labels:
[1] = molecular target: E. coli MTAN (Escherichia coli, UniProt P0AF12); assay: Inhibition of E. coli MTAN, xanthine oxidase-coupled enzyme assay; type: biochemical; conditions: Km of MTA over Ki of the inhibitor
[2] = molecular target: T1, human MTAP (Homo sapiens, UniProt Q13126); type: biochemical; conditions: for Km/Ki ratio for human MTAP: Km of MTA over Ki of the inhibitor
T1 sequence (Q13126 1-283): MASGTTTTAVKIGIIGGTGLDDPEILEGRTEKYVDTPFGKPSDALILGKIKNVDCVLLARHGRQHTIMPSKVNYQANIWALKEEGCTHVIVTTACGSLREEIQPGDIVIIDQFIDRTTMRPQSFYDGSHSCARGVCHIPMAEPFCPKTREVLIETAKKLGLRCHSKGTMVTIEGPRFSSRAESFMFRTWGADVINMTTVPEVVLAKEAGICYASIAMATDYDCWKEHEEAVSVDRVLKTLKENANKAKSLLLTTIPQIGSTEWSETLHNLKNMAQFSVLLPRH

Better competitor for the catalytic site of human MTAP than for E. coli MTAN, factor ([2]; from the Km/Ki ratios)	SMILES	Km/Ki ratio for E. coli MTAN [1]	Km/Ki ratio for human MTAP [2]
	C=CC[C@H]1CN(Cc2c[nH]c3c(N)ncnc23)C[C@@H]1O (racemic) [(±)-41, (±)-trans-4-Allyl-1-[(9-deaza-adenin-9-yl)methyl]-3-hydroxypyrrolidine]	1228	1759
6	CC[C@H]1CN(Cc2c[nH]c3c(N)ncnc23)C[C@@H]1O (racemic) [(±)-28, (±)-trans-1-[(9-Deaza-adenin-9-yl)methyl]-4-ethyl-3-hydroxypyrrolidine]	512	
	Nc1ncnc2c(CN3C[C@H](CCCSCc4ccccc4)[C@@H](O)C3)c[nH]c12 (racemic) [(±)-57, (±)-trans-4-[3-(Benzylthio)propyl]-1-[(9-deaza-adenin-9-yl)methyl]-3-hydroxypyrrolidine]	7963	74
	C=C[C@H]1CN(Cc2c[nH]c3c(N)ncnc23)C[C@@H]1O (racemic) [(±)-40, (±)-trans-1-[(9-Deaza-adenin-9-yl)methyl]-3-hydroxy-4-vinylpyrrolidine]	662	1649
